In patent US9296741B2, “Bromodomain inhibitors” (priority 2012, dated 2016) one finds Ki, EC50 and half-life data, which are given here for seven compounds.

The target in series [1] is human BRD4 second bromodomain (BDII_E352-M457) (Homo sapiens (Human), UniProt O60885). The series is described as follows: TR-FRET bromodomain binding assay, BRD4 second bromodomain. In general terms: Time-resolved FRET reads energy transfer from a long-lived donor to a nearby acceptor.
For series [2], the system named is breast cancer cell line MX-1. The series is described as follows: MX-1 cell line proliferation assay. The series is classed as cell-based, human. The note with it: Homo sapiens, MX1, 72 h; MX-1 cells, 3-day proliferation, Cell Titer Glo; read-out: Cellular proliferation: EC50. A general note: ATP-based viability assays read luminescence as a measure of living cells.

In series [3] the target is human BRD4 first bromodomain (BDI_K57-E168) (Homo sapiens (Human), UniProt O60885). Description: TR-FRET bromodomain binding assay, BRD4 first bromodomain.
The nature of series [4]: Human liver microsome stability assay. The series is classed as in vitro ADME. The note with it: both sexes, human, microsomes, pH 7.4. (In general: Liver microsomes are a subcellular fraction often used to study metabolism.)
The nature of series [5]: Mouse liver microsome stability assay. The series is classed as in vitro ADME. The settings on record: male, CD1, mouse, microsomes, pH 7.4.
A short description of series [6]: Rat liver microsome stability assay. It counts as in vitro ADME. The settings on record: rat liver microsomes (male Sprague-Dawley), 0.5 μM test compound, 0.25 mg/mL microsomal protein, pH 7.4, 37° C.; read-out: Stability in rat liver microsomes (t1/2 in minutes).

One may read the Ki as a measure of affinity in units of concentration, obtained from inhibition or displacement.

Turning to `Cn1cc(-c2cc(S(=O)(=O)Nc3ccccc3)ccc2OCC2CC2)c2cc[nH]c2c1=O` [Example 313, 4-(cyclopropylmethoxy)-3-(6-methyl-7-oxo-6,7-dihydro-1H-pyrrolo[2,3-c]pyridin-4-yl)-N-phenylbenzenesulfonamide], the values for the Ki in series [1] and in series [3] were 6.1 nM and 15.8 nM, respectively. For the same compound, the EC50 in series [2] was found to be 50.9 nM. Also, the results for the half-life at 0.5 μM in series [4], in series [5] and in series [6] were 5 min, 3 min and 4 min, respectively.

As for `Cn1cc(-c2cc(C(=O)N3CCC(NC(=O)OC(C)(C)C)C3)ccc2Oc2ccc(F)cc2F)c2cc[nH]c2c1=O` (stereo not drawn) [Example 54, tert-butyl {1-[4-(2,4-difluorophenoxy)-3-(6-methyl-7-oxo-6,7-dihydro-1H-pyrrolo[2,3-c]pyridin-4-yl)benzoyl]pyrrolidin-3-yl}carbamate], the Ki in series [1] amounted to 37.5 nM; in series [3], 95.1 nM. Besides, the EC50 in series [2] was determined as 266 nM. Moreover, the values for the half-life at 0.5 μM in series [4], in series [5] and in series [6] were 3 min, 2 min and 30 min, respectively.

Take `CCS(=O)(=O)Nc1ccc(Oc2ccc(F)cc2F)c(-c2cn(C)c(=O)c3[nH]c(CO)cc23)c1` [Example 337, N-{4-(2,4-difluorophenoxy)-3-[2-(hydroxymethyl)-6-methyl-7-oxo-6,7-dihydro-1H-pyrrolo[2,3-c]pyridin-4-yl]phenyl}ethanesulfonamide]: the Ki in series [1] worked out at 4.2 nM; in series [3] it was 4.3 nM. Besides, the EC50 in series [2] is 15.8 nM. In addition, the half-life at 0.5 μM in series [4], in series [5] and in series [6] was over 120 min throughout.

Take `Cn1cc(-c2cc(S(=O)(=O)C(F)(F)F)ccc2OCC2CC2)c2cc[nH]c2c1=O` [Example 243, 4-{2-(cyclopropylmethoxy)-5-[(trifluoromethyl)sulfonyl]phenyl}-6-methyl-1,6-dihydro-7H-pyrrolo[2,3-c]pyridin-7-one]: the Ki amounted to 38.2 nM in series [1] and 11.5 nM in series [3]. The EC50 in series [2] worked out at 249 nM. Also, the values for the half-life at 0.5 μM in series [4], in series [5] and in series [6] were over 120 min, 109 min and 20 min, respectively.

`CN(C)C(=O)c1cc2c(-c3cc(S(C)(=O)=O)ccc3Oc3ccc(F)cc3F)cn(C)c(=O)c2[nH]1` [Example 269, 4-[2-(2,4-difluorophenoxy)-5-(methylsulfonyl)phenyl]-N,N,6-trimethyl-7-oxo-6,7-dihydro-1 H-pyrrolo[2,3-c]pyridine-2-carboxamide]: the Ki in series [1] stood at 56.9 nM; in series [3], 12.4 nM. Further, in series [2], the EC50 came to 329 nM. Further, the results for the half-life at 0.5 μM in series [4], in series [5] and in series [6] were 79 min, 58 min and 83 min, respectively.

Turning to `CCCS(=O)(=O)Nc1ccc(Oc2ccc(C#N)cc2)c(-c2cn(C)c(=O)c3[nH]ccc23)c1` [Example 93, N-[4-(4-cyanophenoxy)-3-(6-methyl-7-oxo-6,7-dihydro-1H-pyrrolo[2,3-c]pyridin-4-yl)phenyl]propane-1-sulfonamide], the Ki was 32.2 nM in series [1] and 7.6 nM in series [3]. The EC50 in series [2] turned out to be 120 nM. The figures for the half-life at 0.5 μM in series [4], in series [5] and in series [6] were 54 min, 25 min and 102 min, respectively.

For `CN1CCN(Cc2cc3c(-c4cc(S(C)(=O)=O)ccc4Oc4ccc(F)cc4F)cn(C)c(=O)c3[nH]2)CC1` [Example 281, 4-[2-(2,4-difluorophenoxy)-5-(methylsulfonyl)phenyl]-6-methyl-2-[(4-methylpiperazin-1-yl)methyl]-1,6-dihydro-7H-pyrrolo[2,3-c]pyridin-7-one], the inhibitory constant (Ki) in series [1] came to 108 nM; in series [3], 1.8 nM. The EC50 in series [2] came to 191 nM. The half-life at 0.5 μM in series [4] amounted to 25 min; in series [5], 116 min; in series [6], 119 min.
